Each block holds one molecule with its values, some of them ahead of it.
What was measured:
[1] = target: T1, Aurora kinase A (Homo sapiens, UniProt O14965); assay: biochemical
T1 sequence (O14965 whole entry): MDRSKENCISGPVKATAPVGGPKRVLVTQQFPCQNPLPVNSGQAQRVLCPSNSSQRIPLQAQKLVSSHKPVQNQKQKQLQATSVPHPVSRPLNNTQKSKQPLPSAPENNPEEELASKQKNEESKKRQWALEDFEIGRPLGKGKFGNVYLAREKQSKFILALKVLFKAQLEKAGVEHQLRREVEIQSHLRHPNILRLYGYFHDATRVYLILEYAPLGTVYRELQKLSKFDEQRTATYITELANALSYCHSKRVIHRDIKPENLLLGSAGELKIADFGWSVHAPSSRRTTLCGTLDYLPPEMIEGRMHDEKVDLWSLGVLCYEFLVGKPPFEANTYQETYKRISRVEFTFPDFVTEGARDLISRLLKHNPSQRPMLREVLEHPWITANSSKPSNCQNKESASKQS
Description: Inhibition of GST-tagged AURA Ser123 to 401 residues) (unknown origin) expressed in Sf9 insect cells using tetra-LLRASLG peptide as substrate incubated for 90 mins in presence of ATP

[2] = tested on: KM12; assay: Antiproliferative activity against human KM12 cells assessed as reduction in cell viability measured after 72 hrs by MTS assay
[3] = target: Aurora kinase B (Homo sapiens, UniProt Q96GD4); assay: Inhibition of recombinant full length His-tagged human AURB expressed in baculovirus expression system using tetra-LLRASLG peptide as substrate incubated for 180 mins in presence of ATP; set-up: species or system Sf9
[4] = Inhibition of TRKC G696A mutant (unknown origin) in presence of [gamma-33P]ATP by hotspot kinase assay; set-up: species or system Homo sapiens
[5] = Inhibition of TRKA G595R/A608D double mutant (unknown origin) bin presence of [gamma-33P]ATP by hotspot kinase assay; set-up: species or system Homo sapiens
[6] = Inhibition of TRKC L686M mutant (unknown origin) in presence of [gamma-33P]ATP by hotspot kinase assay; set-up: species or system Homo sapiens
[7] = Inhibition of TRKC G623R mutant (unknown origin) in presence of [gamma-33P]ATP by hotspot kinase assay; set-up: species or system Homo sapiens
[8] = Inhibition of TRKA F589L mutant (unknown origin) in presence of [gamma-33P]ATP by hotspot kinase assay; set-up: species or system Homo sapiens
[9] = Inhibition of TRKA […]/G667C double mutant (unknown origin) in presence of [gamma-33P]ATP by hotspot kinase assay; set-up: species or system Homo sapiens
[10] = Inhibition of TRKA G595R/L657M double mutant(unknown origin) in presence of [gamma-33P]ATP by hotspot kinase assay; set-up: species or system Homo sapiens
[11] = Inhibition of TRKA L657M mutant (unknown origin) in presence of [gamma-33P]ATP by hotspot kinase assay; set-up: species or system Homo sapiens
[12] = target: T2, High affinity nerve growth factor receptor (Homo sapiens, UniProt P04629)
[13] = target: T2, High affinity nerve growth factor receptor; remark: listed apart in the source
Description: Inhibition of wildtype human TRKA using poly (Glu,Tyr) 4:1 as substrate in presence of [gamma-33P]ATP by hotspot kinase assay

[14] = target: BDNF/NT-3 growth factors receptor (Homo sapiens, UniProt Q16620); assay: Inhibition of TRKB (unknown origin)
[15] = target: NT-3 growth factor receptor (Homo sapiens, UniProt Q16288); assay: Inhibition of TRKC (unknown origin)
NT-3 growth factor receptor, sequence (Q16288 whole entry): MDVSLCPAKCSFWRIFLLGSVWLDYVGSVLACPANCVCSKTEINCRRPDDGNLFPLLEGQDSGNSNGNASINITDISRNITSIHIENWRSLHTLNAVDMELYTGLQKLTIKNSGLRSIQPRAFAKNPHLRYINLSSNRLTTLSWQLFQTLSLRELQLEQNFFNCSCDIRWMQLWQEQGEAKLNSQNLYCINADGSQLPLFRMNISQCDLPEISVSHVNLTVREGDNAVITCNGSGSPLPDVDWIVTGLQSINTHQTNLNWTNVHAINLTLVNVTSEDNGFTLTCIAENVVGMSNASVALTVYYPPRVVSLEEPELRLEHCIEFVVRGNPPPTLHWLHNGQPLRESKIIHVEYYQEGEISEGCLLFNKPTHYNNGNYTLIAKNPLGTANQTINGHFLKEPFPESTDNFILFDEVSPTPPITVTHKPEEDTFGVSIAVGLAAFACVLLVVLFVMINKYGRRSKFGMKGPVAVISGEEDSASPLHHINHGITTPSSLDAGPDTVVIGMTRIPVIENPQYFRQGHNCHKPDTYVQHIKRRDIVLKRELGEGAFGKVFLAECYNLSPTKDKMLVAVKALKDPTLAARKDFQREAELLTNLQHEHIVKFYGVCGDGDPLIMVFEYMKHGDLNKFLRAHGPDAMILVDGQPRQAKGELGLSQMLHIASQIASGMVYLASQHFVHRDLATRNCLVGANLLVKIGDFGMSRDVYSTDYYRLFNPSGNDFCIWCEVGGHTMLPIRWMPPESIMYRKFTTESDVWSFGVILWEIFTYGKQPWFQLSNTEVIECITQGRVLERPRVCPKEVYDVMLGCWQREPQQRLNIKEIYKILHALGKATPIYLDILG

T2 sequence (P04629 whole entry): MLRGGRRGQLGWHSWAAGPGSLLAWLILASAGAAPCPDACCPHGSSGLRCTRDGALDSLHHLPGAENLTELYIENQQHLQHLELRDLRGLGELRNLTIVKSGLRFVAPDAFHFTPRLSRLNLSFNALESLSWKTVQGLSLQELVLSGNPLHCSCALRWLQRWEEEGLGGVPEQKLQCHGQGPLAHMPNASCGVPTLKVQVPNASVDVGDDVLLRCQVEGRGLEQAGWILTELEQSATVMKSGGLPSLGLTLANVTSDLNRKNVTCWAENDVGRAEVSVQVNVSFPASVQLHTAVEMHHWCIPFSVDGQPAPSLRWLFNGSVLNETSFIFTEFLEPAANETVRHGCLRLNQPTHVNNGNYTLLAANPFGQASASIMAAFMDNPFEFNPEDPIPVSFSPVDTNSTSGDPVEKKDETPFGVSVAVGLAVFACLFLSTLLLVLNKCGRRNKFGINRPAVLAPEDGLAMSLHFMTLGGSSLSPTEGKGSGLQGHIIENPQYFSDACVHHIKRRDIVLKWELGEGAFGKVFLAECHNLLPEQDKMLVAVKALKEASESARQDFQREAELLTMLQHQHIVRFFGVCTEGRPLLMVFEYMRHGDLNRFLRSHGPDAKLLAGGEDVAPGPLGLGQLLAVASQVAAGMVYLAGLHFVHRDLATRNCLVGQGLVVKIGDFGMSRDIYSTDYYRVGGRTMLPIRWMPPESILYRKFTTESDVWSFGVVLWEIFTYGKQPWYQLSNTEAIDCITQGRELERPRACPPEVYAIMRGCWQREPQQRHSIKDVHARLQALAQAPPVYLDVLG
Aurora kinase B, sequence (Q96GD4 whole entry): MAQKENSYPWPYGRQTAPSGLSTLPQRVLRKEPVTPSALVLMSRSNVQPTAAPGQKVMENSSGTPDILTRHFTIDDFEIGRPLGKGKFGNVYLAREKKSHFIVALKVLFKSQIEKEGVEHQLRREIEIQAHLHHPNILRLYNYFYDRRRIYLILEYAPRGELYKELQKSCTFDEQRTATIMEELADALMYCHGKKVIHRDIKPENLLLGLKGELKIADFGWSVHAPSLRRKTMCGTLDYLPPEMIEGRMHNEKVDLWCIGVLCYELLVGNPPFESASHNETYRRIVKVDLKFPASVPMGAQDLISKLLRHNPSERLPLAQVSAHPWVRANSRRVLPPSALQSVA
BDNF/NT-3 growth factors receptor, sequence (Q16620 whole entry): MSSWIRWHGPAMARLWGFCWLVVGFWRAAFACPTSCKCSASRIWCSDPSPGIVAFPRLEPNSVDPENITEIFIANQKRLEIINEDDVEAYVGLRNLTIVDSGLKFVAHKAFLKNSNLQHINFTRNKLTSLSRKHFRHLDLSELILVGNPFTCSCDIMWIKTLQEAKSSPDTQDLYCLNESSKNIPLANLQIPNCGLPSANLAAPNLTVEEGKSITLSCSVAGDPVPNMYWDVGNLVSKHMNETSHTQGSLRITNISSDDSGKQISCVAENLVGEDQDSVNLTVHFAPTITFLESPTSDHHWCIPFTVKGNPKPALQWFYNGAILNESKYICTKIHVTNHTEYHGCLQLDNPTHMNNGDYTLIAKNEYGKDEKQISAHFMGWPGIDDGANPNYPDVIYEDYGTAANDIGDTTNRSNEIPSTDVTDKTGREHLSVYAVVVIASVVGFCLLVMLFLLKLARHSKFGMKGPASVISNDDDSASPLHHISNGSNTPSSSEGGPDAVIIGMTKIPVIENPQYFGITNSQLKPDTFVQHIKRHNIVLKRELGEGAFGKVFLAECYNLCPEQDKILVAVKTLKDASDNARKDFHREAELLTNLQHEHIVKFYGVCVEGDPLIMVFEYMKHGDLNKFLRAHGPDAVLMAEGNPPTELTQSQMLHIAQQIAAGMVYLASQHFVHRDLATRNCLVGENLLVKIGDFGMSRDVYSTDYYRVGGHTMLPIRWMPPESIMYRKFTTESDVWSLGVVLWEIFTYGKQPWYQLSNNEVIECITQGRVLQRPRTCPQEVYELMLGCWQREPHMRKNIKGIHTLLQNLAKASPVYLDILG

IC50 [1]: 156 nM
Structure (SMILES): CCOc1cc2ncnc(Nc3ccc(NC(=O)Nc4cccc(Cl)c4)cc3)c2cc1F

Structure (SMILES): CCOc1cc2c(NCCc3ccc(NC(=O)Nc4ccccc4)cc3)ncnc2cc1F
IC50 [1]: 65.6 nM
IC50 ([2]; km12): 324 nM

Structure (SMILES): O=C(Nc1ccccc1)Nc1ccc(CCNc2ncnc3cc(F)c(F)cc23)cc1
IC50 ([2]; Homo sapiens, KM12, 72 h): 1520 nM

IC50 [1]: 108 nM
Structure (SMILES): CCOc1cc2c(NCCc3ccc(NC(=O)Nc4cccc(Cl)c4)cc3)ncnc2cc1F

IC50 [1]: 8 nM
Structure (SMILES): CCOc1cc2ncnc(NCc3ccc(NC(=O)Nc4ccccc4)cc3)c2cc1F
IC50 ([2]; Homo sapiens, KM12, 72 h): 2400 nM

IC50 [1]: 352 nM
IC50 [3]: 512 nM
Structure (SMILES): CCOc1cc2ncnc(NCCc3ccc(NC(=O)Nc4cc(Cl)ccc4OC)cc3)c2cc1F

IC50 [1]: 63.2 nM
Structure (SMILES): CCOc1cc2ncnc(NCCc3ccc(NC(=O)Nc4cccc(C(F)(F)F)c4)cc3)c2cc1F

IC50 [4]: 3.28 nM
IC50 [5]: 80.2 nM
IC50 [6]: 150 nM
IC50 [7]: 209 nM
IC50 [8]: 52.1 nM
IC50 [9]: > 10000 nM
IC50 [10]: 2510 nM
IC50 [11]: 20.7 nM
Structure (SMILES): O=C(Nc1cnn2ccc(N3CCC[C@H]3c3cc(F)ccc3F)nc12)N1CC[C@@H](O)C1

Structure (SMILES): CCOc1cc2ncnc(NCCc3ccc(NC(=O)Nc4ccccc4)cc3)c2cc1F
IC50 [1]: 29.2 nM
IC50 [12]: > 9000 nM
IC50 ([2]; km12): 324 nM

IC50 [1]: 6 nM
Structure (SMILES): CCOc1cc2ncnc(NCCc3ccc(NC(=O)Nc4cccc(F)c4)cc3)c2cc1F

IC50 [13]: 72.3 nM
Structure (SMILES): COc1cc2nccc(Oc3ccc(NC(=O)C4(C(=O)Nc5ccc(F)cc5)CC4)cc3)c2cc1OC [CABOZANTINIB]

IC50 [1]: 26.9 nM
Structure (SMILES): CCOc1cc2ncnc(NCCc3ccc(NC(=O)Nc4cccc(Cl)c4)cc3)c2cc1F

IC50 [1]: 44 nM
Structure (SMILES): CCOc1cc2ncnc(NCCc3ccc(NC(=O)Nc4ccc(F)c(Cl)c4)cc3)c2cc1F

IC50 [1]: 2 nM
Structure (SMILES): CCOc1cc2ncnc(NCc3ccc(NC(=O)Nc4cccc(Cl)c4)cc3)c2cc1F
IC50 ([2]; Homo sapiens, KM12, 72 h): 1270 nM

IC50 [1]: 454 nM
IC50 [3]: 548 nM
Structure (SMILES): CCOc1cc2ncnc(NCCc3ccc(NC(=O)Nc4cc(C(F)(F)F)ccc4OC)cc3)c2cc1F

IC50 [1]: 338 nM
Structure (SMILES): CCOc1cc2ncnc(Nc3ccc(NC(=O)Nc4ccccc4)cc3)c2cc1F
IC50 ([2]; Homo sapiens, KM12, 72 h): 2020 nM

IC50 [13]: 2.97 nM
Structure (SMILES): COc1cc2c(Oc3ccc(NC(=O)C4(C(=O)Nc5ccc(F)cc5)CC4)cc3F)ccnc2cc1OCCCN1CCOCC1 [FORETINIB]

IC50 [1]: 5.6 nM
IC50 [12]: 36.8 nM
IC50 [14]: 1.78 nM
IC50 [15]: 0.21 nM
Structure (SMILES): CN(C)CCCOc1ccc2c(NCCc3cnc(NC(=O)Nc4cccc(Cl)c4)s3)ncnc2c1
IC50 ([2]; Homo sapiens, KM12, 72 h): > 10000 nM

IC50 [1]: 140 nM
Structure (SMILES): O=C(Nc1ccccc1)Nc1ccc(CCNc2ncnc3ccccc23)cc1

IC50 [1]: 23 nM
Structure (SMILES): COc1cc2ncnc(NCCc3ccc(NC(=O)Nc4ccccc4)cc3)c2cc1OC

IC50 [1]: 349 nM
Structure (SMILES): CCOc1cc2ncnc(NCCc3ccc(NC(=O)Nc4ccc(Cl)c(C(F)(F)F)c4)cc3)c2cc1F
